Assays:
MCF7 = experiment: Toxicity of NAC-MTN vs CD-MTN and MTN, MTT (Example 9, EX042105); type: cell-based, human
Method: (§1) FIG. 4. […] The relative toxicity of NAC-MTN was compared with MTN and CD-MTN in four cell lines, MCF7(breast cancer), COS7green monkey kidney (SV40 transformed), 3T3 (mouse fibroblast), and BHK21(hamster kidney). Cells were treated with identical amounts of MTN formulated as either NAC-MTN, MTN only, or poly-beta-cyclodextrin-sulfylbutylether(CD-MTN). After an incubation period, cell viability was assayed with MTT assay. The differences in toxicity between NAC-MTN and MTN or NAC-MTN and CD-MTN are shown as % difference. Greater percentage difference correlates to more reduction in relative NAC-MTN toxicity.
(§2) MCF7, COS7, 3T3, and BHK21 cells were plated out in duplicate rows of equivalent cell density in 100ul final volume. Initial cell densities were 2000 cells/well.
(§3) Preparing NAC-MTN, CD-MTN, and MTN only. Combined 180 ul of 0.05 mg/ml MTN with […] 0.1 mg/ml herring sperm genomic DNA (HSGDNA, Promega), 1500 ul of 2× DMEM media containing 20% FBS to give 3.0 ml final volume and 12% final drug loading in the dsDNA. For MTN only, 180 ul of MTN was combined with 1320 ul H2O and 1500 ul 2× DMEM. […]
(§4) Aspirated media in plate and replaced with 50 ul of 0.5 mg/ml MTT in 1× media, incubated 3 hours, aspirated, air dried 5 min and dissolved in 100 ul of isopropyl, read OD at A570. […]

BHK21 = experiment: as above; type: cell-based, hamster
Method: as §1, §2, §3, §4

[1] = 2 uM final MTN, MTT 48 hours after adding samples

## O=C1c2c(O)ccc(O)c2C(=O)c2c(NCCNCCO)ccc(NCCNCCO)c21 [MTN, mitoxantrone]
MCF7; [1]
  % tox. relative to media only: 48.39%
MCF7; after 24 hours, 2 uM MTN
  toxic effect: no toxic effect
BHK21; [1]
  % tox. relative to media only: 51.76%
BHK21; after 20-24 hour incubation with MTN, 2 uM
  toxicity (est.): ~50%

From patent publication US20070225213A1, “Nucleic acid carriers for delivery of therapeutic agents” (priority 2006, published 2007)
